Results published in patent publication US20180280429A1, “APPLICATION OF NITRATE IN PREPARATION OF DRUG PREVENTING OR TREATING BONE METABOLIC DISEASES” (Capital Medical University, priority 2015, published 2018).

What was measured:
[1] = test system: BMMSCs of ovariectomized rats; assay: BMMSC osteogenic differentiation, alizarin red staining (cells cultured from treated rats); format: cell-based, SD rats; settings: BMMSC from OVX rats given drinking water with nitrate, after 21 days of osteogenesis induction, vs OVX group, *P<0.05
From the text: (§1) 12-week-old female SD rats were selected for the osteoporosis model and bilateral ovaries of them were removed. The experiment objects were divided into 3 groups: the sham operation group (Sham), the ovariectomized group (OVX) and the nitrate group (Nitrate), and there were 10 rats in each group. In the nitrate group, drinking water with sodium nitrate was given on the second day after ovariectomy (ovarianectomy) at a concentration of 2.5 mmol/L, and the daily intake of nitrate in each rat was about 0.5 mmol/Kg bw, the water with nitrate was given for 12 weeks, while normal drinking water was given in the other groups.
(§2) After necropsy, the skin of the hind limbs was removed. After exposing the femur and tibia, the bone marrow was extracted with a 1 mL syringe to flush out from the stump. Cells were cultured in the α-MEM complete medium (containing 10% of bovine serum), and subcultured after the cells were clonally grown until 80% of the fusion.
Preparation of osteoinductive medium: adding 2 mmol/L glutamine, 100 U/ml penicillin and 100 μg/ml streptomycin, 10 mM β-glycerophosphate sodium, and 10 nM Dexamethasone and 50 mg/L vitamin C to 10% fetal bovine serum α-MEM medium. […]

[2] = test system: regulatory T lymphocytes (Treg); assay: Detection of the peripheral blood regulatory T cell ratio by flow cytometry; format: in vivo, SD rats; settings: OVX rats, drinking water with nitrate, 12 weeks, vs OVX group, *P<0.05
From the text: as §1
(1) The Detection of the Peripheral Blood Regulatory T Cell Ratio in the Rats
1) Blood was collected from the abdominal aorta of the rats in each group and the serum was collected.
2) 100 μl 0.1% BSA is added for resuspending, and then Anti-CD4, Anti-CD25 are added for incubating on ice for 30 minutes while avoiding light.
3) The obtained mixture is centrifuged at 1500 rpm for 10 minutes, and then the supernatant is removed and 0.1% BSA is added for resuspending.
4) The membrane-permeation solution is added on 4° C., 10 minutes.
5) The obtained mixture is centrifuged at 1500 rpm for 10 minutes, and then the supernatant is removed and 0.1% BSA is added for resuspending.
6) Anti-Foxp3 is added for incubating on ice for 30 minutes while avoiding light. […]

[3] = test system: BMMSCs of ovariectomized rats; assay: BMMSC proliferation by the CCK8 method (cells cultured from treated rats); format: cell-based, SD rats; settings: third generation cells from OVX rats given drinking water with nitrate, vs OVX group, *P<0.05
From the text: as §1, §2
100 μl of cell suspension was inoculated in the 96-well plate, and the plate was pre-cultured in the incubator for 24 hours (under the condition of 37° C., 5% CO2). Then the plate was incubated in an incubator for 72 hours. 100 μl of culture medium was added to each well and 10 μl of CCK-8 solution was added to each hole. After 2 hours, the absorbance at 450 nm was measured with an enzyme labeled instrument.

[4] = Measurement of nitrate and nitrite in serum (Griess); format: in vivo, SD rats; settings: after drinking water containing nitrate for 3 months, *p<0.05
From the text: as §1
(1) Preparation of the standard: the double dilution of the original standard was 200 μM-3.125 μM
(2) Determination of Nitrite Concentration:
1) Adding 50 μl reaction buffer to blank holes;
2) Adding 50 μl sample or standard to reaction buffer;
3) Adding 50 μl of reaction buffer to each hole in sequence;
4) Adding 50 μl of Griess Reagent I in each hole in sequence;
5) Adding 50 μl of Griess Reagent II to each hole and incubating at room temperature for 10 minutes;
6) Reading the OD value at 540 nm with a microplate reader and the value at 690 nm is used as calibration.
(3) Determination of Nitrate Concentration: […]
7) Reading the OD value at 540 nm with a microplate reader and the value at 690 nm is used as calibration.

[5] = test system: ovariectomized rats; assay: Bone density detection by Micro-CT of the upper tibia in the ovariectomized rat osteoporosis model; format: in vivo, SD rats; settings: OVX rats, 12 weeks, vs OVX group
[6] = test system: TGF-β1, IFN-γ and IL-17; assay: Detection of TGF-β1, IFN-γ and IL-17 in serum; format: in vivo, SD rats; settings: OVX rats, drinking water with nitrate, 12 weeks, vs OVX group, *P<0.05
From the text: as §1
(2) Detection of TGF-β1, IFN-γ and IL-17
1) The serum is diluted for 10 times, and 0.1 ml of which is placed into the 96-well plate of the kit. At the same time, the standard in the kit is taken and diluted in proportion, and then placed into the 96-well plate and incubated at 37° C./at room temperature for 30 minutes/1 hour according to the instructions. The obtained object is washed with a buffer for 3 times and each time lasts for 3 minutes.
2) 100 μl enzyme-labeled antibody is added for incubating for 15 minutes/30 minutes at 37° C./at room temperature. The obtained object is washed for 3 times and each time lasts for 3 minutes.
3) 100 μl substrate solution is added and then incubated for 15 minutes at room temperature/37° C.
4) 100 μl stop solution is added to stop the reaction for 5 minutes.
5) The readings of the enzyme labeled instrument at 450 nm is obtained.

[7] = test system: ovariectomized rats; assay: Tibia weight, body weight and adverse reactions in ovariectomized rats; format: in vivo, SD rats; settings: OVX rats
From the text: as §1

[8] = sodium nitrate 2.5 mmol/L in drinking water, *P<0.05

O=[N+]([O-])[O-].[Na+] [nitrate, sodium nitrate]
osteogenic differentiation of BMMSCs, alizarin red staining and quantification (FIG. 5B) [1]: significantly enhanced osteogenic differentiation | proportion of regulatory T lymphocytes in peripheral blood CD4 positive cells (FIG. 4A) [2]: reduce the decline | proliferation of BMMSCs, OD450 value by CCK8 (FIG. 5A) [3]: significantly reduced the proliferation | content of nitrate in serum (FIG. 3A) [4]: significantly increased | content of nitrite in serum (FIG. 3B) [4]: significantly increased | loss of tibial bone mass (MicroCT of the upper tibia, FIG. 1B) ([5]; sodium nitrate 2.5 mmol/L in drinking water (about 0.5 mmol/Kg bw daily)): significantly relieved | bone density (BMD), MicroCT quantitative analysis (FIG. 1C) [5, 8]: partially recover | bone volume fraction (BV/TV), MicroCT quantitative analysis (FIG. 1D) [5, 8]: partially recover | trabecular number (Tb.N), MicroCT quantitative analysis (FIG. 1F) [5, 8]: partially recover | trabecular thickness (Tb.Th), MicroCT quantitative analysis (FIG. 1E) [5, 8]: partially recover | level of IFN-γ in serum (FIG. 4C) [6]: alleviate the up-regulation | level of IL-17 in serum (FIG. 4D) [6]: alleviate the up-regulation | level of TGF-β1 in serum (FIG. 4B) [6]: alleviate the down-regulation | adverse reactions ([7]; nitrate in drinking water, at the time of preservation of bone mass): no obvious adverse reactions | body weight (weight gain) (FIG. 2B) ([7]; sodium nitrate 2.5 mmol/L in drinking water, 12 weeks): no significant effect on the weight gain | tibia weight (FIG. 2A) ([7]; sodium nitrate 2.5 mmol/L in drinking water, 12 weeks, vs OVX group): relieve the decrease of tibia weight
